Where two headings read alike, the source gives them in different places.
Legend:
in vitro [1] = conditions: human
in vitro [2] = conditions: African green monkey
[3] = test system: primary human hepatocytes
in vitro [4] = conditions: human; remark: listed apart in the source
in vitro [5] = conditions: human; for CC50: Cytotoxicity CC50 Huh-7
Huh-7 cells [6] = conditions: human
YFV [7] = test: microbe, parasite or virus in culture; assay type: cell-based, Yellow fever virus strain 17D; conditions: for EC50: read-out: Anti-YFV Activity (Huh-7) EC50; for EC90: read-out: Anti-YFV Activity (Huh-7) EC90
YFV [8] = test: microbe, parasite or virus in culture; assay type: cell-based, Yellow fever virus strain 17D; conditions: Yellow fever virus, Macrophage; for EC50: read-out: EC50, YFV replication in MDM
YFV [9] = conditions: mouse, in vivo; cited from earlier work
Huh-7 cells [10] = conditions: human; remark: listed apart in the source
YFV [11] = test: microbe, parasite or virus in culture; assay type: cell-based; conditions: Yellow fever virus, RD, read-out: EC50, inhibition of YFV replication in RD cells
YFV [12] = conditions: cited from earlier work
[13] = test system: primary human hepatocytes; conditions: cited from earlier work
YFV 17D = conditions: mouse, in vivo
MDM = conditions: human
Huh-7 cells [14] = conditions: cited from earlier work
YFV [15] = test: microbe, parasite or virus in culture; assay type: cell-based, Yellow fever virus strain 17D; conditions: Yellow fever virus, Huh-7, 72 h, read-out: EC50 in 3D cultures
in vitro [16] = conditions: human; remark: listed apart in the source
[17] = Yellow fever virus, Huh-7, 72 h

SMILES	CC50 (in vitro [1]) [µM]	CC50 (in vitro [2]) [µM]	CC50 (in vitro [4]) [µM]	CC50 (in vitro [5]) [µM]	NTP formation in Huh-7 cells (Huh-7 cells [6]) [pmol / 10^6 cells]	EC50 (YFV [7]; [17]) [µM]	EC90 (YFV [7]; [17]) [µM]	also measured
CC(C)OC(=O)[C@H](C)NP(=O)(OC[C@H]1O[C@@H](n2ccc(=O)[nH]c2=O)C(Cl)(Cl)[C@@H]1O)Oc1ccccc1 (some centres unmarked) [Compound 3]	> 100	> 100	> 100	> 100	39.7	0.4 ± 0.5	3.2 ± 2.7	NTP formation in primary human hepatocytes [3]: 622.0 pmol / 10^6 cells
CC(C)OC(=O)[C@H](C)NP(=O)(OC[C@H]1O[C@@H](n2ccc(=O)[nH]c2=O)[C@](F)(Cl)[C@@H]1O)Oc1ccccc1 (some centres unmarked) [Compound 7]	> 100	> 100	> 100			> 10	> 10	
O=c1ccn([C@@H]2O[C@H](CO)[C@@H](O)[C@@]2(F)Cl)c(=O)[nH]1 [Compound 6]	> 100	> 100	> 100	> 100		> 10	> 10	
CC(C)OC(=O)[C@H](C)NP(=O)(OC[C@H]1O[C@@H](n2ccc(=O)[nH]c2=O)[C@](F)(Br)[C@@H]1O)Oc1ccccc1 (some centres unmarked) [Compound 11]	> 100	> 100	> 100			> 10	> 10	
CC(C)OC(=O)[C@H](C)N[P@](=O)(OC[C@H]1O[C@@H](n2ccc(=O)[nH]c2=O)[C@](C)(F)[C@@H]1O)Oc1ccccc1 [Sofosbuvir, sofosbuvir, reference compound]	> 100	> 100	> 100	< 100	317.2	0.6 ± 0.6	3.5 ± 1.5	EC50 (YFV [8]): 0.4 ± 0.3 µM; NTP formation in primary human hepatocytes [3]: 2230.0 pmol / 10^6 cells; Viral burden in sera, livers, kidneys and spleens (YFV [9]): failed to reduce viral burden; CC50 (Huh-7 cells [10]): 88.5 ± 11.6 µM
O=c1ccn([C@@H]2O[C@H](CO)[C@@H](O)[C@]2(F)Br)c(=O)[nH]1 [Compound 8]	> 100	> 100	> 100	> 100		> 10	> 10	
CC(C)OC(=O)[C@H](C)NP(=O)(OC[C@H]1O[C@@H](n2ccc(=O)[nH]c2=O)[C@@](F)(Cl)[C@@H]1O)Oc1ccccc1 (some centres unmarked) [Compound 5]	> 100	> 100	> 100		866.2	0.4 ± 0.2	6.5 ± 2.6	EC50 (YFV [11]): 0.5 ± 0.2 µM; NTP formation in primary human hepatocytes [3]: 5245.0 pmol / 10^6 cells; Reduction of CPE in RD cell line (YFV [12]): < 2%
O=c1ccn([C@@H]2O[C@H](CO)[C@@H](O)[C@@]2(F)Br)c(=O)[nH]1 [Compound 10]	> 100	> 100	> 100	> 100		> 10	> 10	
O=c1ccn([C@@H]2O[C@H](CO)[C@@H](O)C2(Cl)Cl)c(=O)[nH]1 [Compound 2]	> 100	> 100	> 100	> 100	0.5	> 10	> 10	
O=c1ccn([C@@H]2O[C@H](CO)[C@@H](O)[C@]2(F)Cl)c(=O)[nH]1 [Compound 4]	> 100	> 100	> 100	> 100	0.5	> 10	> 10	
CC(C)OC(=O)[C@H](C)N[P@](=O)(OC[C@H]1O[C@@H](n2ccc(=O)[nH]c2=O)[C@@](F)(Br)[C@@H]1O)Oc1ccccc1 [Compound 9]	> 100	> 100	> 100			0.85	7.8 ± 3.6	EC50 (YFV [8]): 0.4 ± 0.1 µM; EC90 (YFV [8]; read-out: EC90, YFV replication in MDM): 1.5 ± 0.6 µM; NTP formed in primary hepatocytes [13]: 3206 ± 247 pmol/10^6 cells; viability at 100 µM (in vitro [5]): 87.1%; Immune cell infiltration into the liver (YFV 17D): significantly reduced; Impact on total circulating leukocytes (YFV 17D): no adverse impact; Impact on weight loss (YFV 17D): no adverse impact; Levels of serum transaminase (ALT) (YFV 17D): reduced; Percentage of mice with absent inflammatory cell infiltration in the liver (YFV 17D): 25%; Percentage of mice with mild inflammatory cell infiltration in the liver (YFV 17D): 50%; Percentage of mice with minimum inflammatory cell infiltration in the liver (YFV 17D): 25%; YFV genome copy levels (virus load) in liver (YFV 17D): significant reduction; Cytotoxicity in MDM (MDM): no notable cytotoxicity up to 100 µM; NTP formed in Huh-7 cells (Huh-7 cells [14]): 646 ± 107 pmol/10^6 cells; EC50 (YFV [15]): 3.2 µM; viability at 100 µM (in vitro [16]): 84.3 ± 0.9%; EC50 (YFV [7]): 0.9 ± 0.8 µM

— paper PMC9694579 (Microorganisms, 2022)
